This is an account of results in patent US12357652B2, “Formulations of phosphoramidate derivatives of nucleoside drugs” (priority 2015, dated 2025).

Data set [1] in a line: Solubility of NUC-7738 in a range of solvents. In kind it is physicochemical.
Data set [2] can be described thus: NUC-7738 concentrate mixed with Tween 80 and added to saline, checked by eye for precipitation; assay and purity after 48 h. In kind it is physicochemical. As for the experimental part: 50 µL of a 100 mg/mL concentrate of NUC-7738 (mixture of diastereoisomers) in a range of solvents (DMA, DMSO, NMP, ethanol, benzyl alcohol) was mixed with 50 µL of Tween® 80 and added to 1.150 mL saline and the resultant solutions were checked by eye for precipitation of NUC-7738. Similarly a 50 µL concentrate of NUC-7738 (mixture of diastereoisomers) in Tween® 80 was mixed with 50 µL water for injection and then added to 1.150 mL saline.
(§1) Even a solubiliser is not effective, in the absence of a polar aprotic solvent, at retaining NUC-7738 in solution in aqueous conditions. The solutions prepared above were assayed for NUC-7738 content and purity on being formed and also after 48 h. […] In a further experiment, the […] concentration of NUC-7738 in solvents that could be diluted with saline without precipitation was determined. Solutions of NUC-7738 (mixture of diastereoisomers) at various concentrations in NMP, DMSO and DMA were prepared and 100 µL of the solutions were added to 2.40 mL saline.

The nature of data set [3]: NUC-7738 solutions in NMP, DMSO, DMA diluted with saline, observed for precipitation. In kind it is physicochemical. Here is the method: as §1
For data set [4] the following is noted: cited from earlier work.
The mark [5] stands for this setting: solutions of Table 8, after 48 h versus on being formed.

As to `C[C@H](NP(=O)(OC[C@@H]1C[C@@H](O)[C@H](n2cnc3c(N)ncnc32)O1)Oc1ccccc1)C(=O)OCc1ccccc1` (stereo partly drawn) [NUC-7738, 3′-deoxyadenosine-5′-O-[phenyl(benzyloxy-L-alaninyl)] phosphate], the Solubility – broadly, the dissolved amount per volume that the medium holds – in data set [1] (5% Tween in water) was less than 11.8 mg/mL; in data set [1] (DMA) it was more than 667 mg/mL; in data set [1] (DMSO), more than 667 mg/mL; in data set [1] (Ethanol), more than 667 mg/mL; in data set [1] (Heptane), less than 12 mg/mL; in data set [1] (NMP) it was more than 667 mg/mL. The Solubility in data set [1] (Propylene Glycol) was more than 667 mg/mL; in data set [1] (isopropylacetate), less than 9 mg/mL; in data set [1] (tbutylmethylether) it was less than 11 mg/mL. The Appearance result in data set [2] (100 mg/mL concentrate in BnOH 50 + TW80 50 + Saline 1150) was “White precipitate, milky solution”; in data set [2] (100 mg/mL concentrate in DMA 50 + TW80 50 + Saline 1150), “Clear and limpid solution”; in data set [2] (100 mg/mL concentrate in DMSO 50 + TW80 50 + Saline 1150), “Clear and limpid solution”; in data set [2] (100 mg/mL concentrate in EtOH 50 + TW80 50 + Saline 1150), “White precipitate, milky solution”; in data set [2] (100 mg/mL concentrate in NMP 50 + TW80 50 + Saline 1150), “Clear and limpid solution”; in data set [2] (concentrate in TW80 50 + WFI 50 + Saline 1150), “White precipitate, milky solution”. The Appearance result in data set [3] (DMA 25 mg/ml concentrate 100 + Saline 2400) was “White insoluble precipitate from the first drop”; in data set [3] (DMSO 25 mg/ml concentrate 100 + Saline 2400), “White precipitate after addition of 100 μL”; in data set [3] (DMSO 50 mg/ml concentrate 100 + Saline 2400), “White insoluble precipitate from the first drop”; in data set [3] (DMSO 100 mg/ml concentrate 100 + Saline 2400), “White insoluble precipitate from the first drop”; in data set [3] (NMP 25 mg/ml concentrate 100 + Saline 2400) it was “Clear and limpid solution”; in data set [3] (NMP 50 mg/ml concentrate 100 + Saline 2400), “White insoluble precipitate from the first drop”. In addition, the Appearance entry in data set [3] (NMP 100 mg/ml concentrate 100 + Saline 2400) was “White insoluble precipitate from the first drop”. Further, in data set [2] (setting [5]), the Assay content entry is reported as “substantially unchanged”. The Purity result in data set [2] (setting [5]) is “substantially unchanged”.
Consider `C[C@H](NP(=O)(OC[C@H]1O[C@@H](n2ccc(N)nc2=O)C(F)(F)[C@@H]1O)Oc1ccccc1)C(=O)OCc1ccccc1` (stereo partly drawn) [NUC-1031, 2′-deoxy-2′,2′-difluoro-D-cytidine-5′-O-[phenyl (benzoxy-L-alaninyl)] phosphate], for which the “Stability (to precipitation and to degradation)” value in data set [4] (S-isomer alone or mixture of R and S epimers at 4, 8 and 10 mg/mL, 48 hours after dilution in 0.45% and 0.9% saline, pH 4.5, 6.0 and 7.0, not stirred) is given as “stable”. Further, in data set [4] (all of the NUC-1031 solutions), the Osmolarity result is “acceptable for peripheral administration”.
